Laboratory results reported in PubChem BioAssay (NCI).
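In this assay, cells in 96-well plates receive the compound at five concentrations for 48 hours. Endpoints are linearly interpolated between the surrounding concentrations. GI50: concentration for 50% inhibition of growth. TGI is the concentration that stops growth completely.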

Tests used:
Assay in all cases: NCI anticancer screen, dose series, 48 h
[1] = test system: UACC-257 melanoma
[2] = test system: HL-60(TB) leukemia
[3] = test system: K-562 leukemia
[4] = test system: CAKI-1 renal
[5] = test system: A498 renal
[6] = test system: SN12C renal
[7] = test system: MALME-3M melanoma
[8] = test system: NCI-H23 lung
[9] = test system: IGROV1 ovarian
[10] = test system: UO-31 renal

| Structure (SMILES) | GI50 [1] [µM] | TGI [1] [µM] | GI50 [2] [µM] | TGI [2] [µM] | GI50 [3] [µM] | TGI [3] [µM] | GI50 [4] [µM] | TGI [4] [µM] | GI50 [5] [µM] | TGI [5] [µM] | GI50 [6] [µM] | TGI [6] [µM] | GI50 [7] [µM] | TGI [7] [µM] | GI50 [8] [µM] | TGI [8] [µM] | GI50 [9] [µM] | TGI [9] [µM] | GI50 [10] [µM] | TGI [10] [µM] |
| --- | --- | --- | --- | --- | --- | --- | --- | --- | --- | --- | --- | --- | --- | --- | --- | --- | --- | --- | --- | --- |
| Cc1nc2cc(O)c(O)cc2cc1Oc1ccc(NC(=O)Nc2ccc(Cl)c(Cl)c2)cc1 | 7.27 | 21.4 | 9.02 | 22.4 | 6.93 | 29.6 | 4.96 | 30 | > 32.5 | > 32.5 | 8.97 | 30.3 | 8.6 | 26 | 6.97 | 19.6 | 12.3 | > 32.5 | 6.97 | 14.9 |
| COc1nc2c(nc(N)n2C2OC(CO)C(O)C(O)C2O)c(=O)n1C (centres undefined) | – | > 100 | – | > 100 | – | > 100 | – | > 100 | – | > 100 | – | > 100 | – | > 100 | – | > 100 | – | > 100 | – | > 100 |
| COc1ccc(Cc2ccccc2C(=O)O)c2ccccc12 | – | 48.3 | – | 46 | – | > 100 | – | > 100 | – | 57.9 | – | > 100 | – | 59.3 | – | 67.3 | – | 65.1 | – | > 100 |
| COC(=O)c1ccc2c(c1)nc(-c1ccc(Cl)cc1)n2-c1cc(C(C)(C)C)[nH]n1 | 4.97 | 22.9 | 4.03 | 19 | 4.2 | > 100 | 2.25 | 12.8 | 2.26 | 9.76 | 4.34 | 27.7 | 3.25 | 15.6 | 3.42 | 36 | 3.64 | 25 | 3.35 | 44.1 |
| COC(=O)c1c(-c2ccccc2)csc1NC(=O)c1c(-c2ccccc2)noc1C | > 82.9 | > 100 | 1.32 | > 100 | 0.409 | > 100 | 0.745 | > 100 | > 100 | > 100 | 4.06 | > 100 | > 100 | > 100 | > 29.7 | > 100 | 3.44 | > 100 | 8.88 | > 100 |
| COc1ccc(C2CC(c3cc(OC)c(OC)c(OC)c3)=NN2)cc1 (centres undefined) | 43.4 | > 100 | 2.19 | 12 | 2.66 | > 100 | 7.39 | 63.5 | 5.99 | 47.6 | 31.4 | > 100 | 24.7 | > 100 | 12.9 | > 100 | 5.98 | > 100 | 4.82 | > 100 |
| CNCCNc1nc2ccccc2c2c(=O)c3cccc(OC)c3sc12 | 1.78 | 3.67 | 1.8 | 3.64 | 0.596 | 2.65 | 1.32 | 2.71 | 1.41 | 2.97 | 1.08 | 2.53 | 1.83 | 3.59 | 1.48 | 3 | 1 | 2.44 | 0.38 | 2.08 |
| O=C(/C=N/O)c1c(-c2ccccc2)[nH]c(-c2ccccc2)c1-c1ccccc1 | – | 35 | – | > 100 | – | > 100 | – | 48.1 | – | 62.4 | – | 35.2 | – | 32.9 | – | 21.3 | – | 28.4 | – | 36.3 |
| O=C(CC1C(=O)Nc2ccccc2S1=O)Nc1cccc(Cl)c1 (centres undefined) | – | > 100 | – | > 64.2 | – | 29.2 | – | 55.3 | – | 47.3 | – | > 100 | – | > 84.4 | – | > 100 | – | > 67.1 | – | > 89.8 |
| COC(=O)c1oc2c(C(=O)/C=C/c3ccc(OC)cc3)c(OCCCN3CCCCC3)ccc2c1C | 1.32 | 2.88 | 0.872 | 2.7 | 2.6 | – | 2.09 | 4.96 | 1.44 | 4.54 | 1.75 | 4.86 | 1.51 | 3.3 | 1.3 | 3.47 | 0.782 | 4.43 | 1.6 | 4.55 |
